Reference: patent publication US5635520A, “Anti-ulcer compositions suitable for rectal administration” (Takeda Chemical Industries, Ltd., priority 1993, dated 1997)
Like-named read-outs stand apart in the source and are kept apart here. Each block holds one compound with its values, some of them ahead of it.

What was measured:
in vivo = experiment: in vivo; design: species or system Male SD rats; conditions: rat, plasma; for AUC at 8 h: 0-8 hr, read-out: AUC0^8 (Area under the plasma concentration time curve)
Protocol: In the same manner as Experiment Example 1 mentioned above, 960 mg of PEG-6000, 20 mg of lansoprazole and 20 mg of sodium oleate were evenly melted and dispersed. The resulting dispersion was filled in 200 mg portions into metallic rectal suppository containers for rats and cooled to provide composition for rectal administration for rats. In addition, using 960 mg of Witepsol W-35 (Dynamit Nobel), 20 mg of lansoprazole and 20 mg of sodium oleate, composition for rectal administration for rats in otherwise the same manner as above.
Male SD rats weighing 250-280 g (Japan Clea) were provided. The animals were allowed food and water ad libitum and, then, fasted for about 16 hours (water was available ad libitum). Using the rats fasted for about 16 hours, the composition for rectal administration prepared above were inserted into the anus and, to prevent expulsion of the drug, the perianal skin was clipped.
For control purposes, 80 mg of lansoprazole, 1.5 ml of PEG-400 and 9.5 ml of 0.5% aqueous solution of sodium hydrogen carbonate were admixed to prepare an injectable solution. This solution was injected, in a volume of 0.25 ml, into the femoral vein of each rat (intravenous dosing).
At 0.08, 0.17, 0.25, 0.5, 1.0, 2.0, 4.0 and 8.0 hours after administration,the blood was drawn from the caudal vein of rats using a blood sampling tube containing a small amount of heparin. Each blood sample was centrifuged (3000 rpm, 10 min.) to separate the plasma (0.1 ml) and lansoprazole in each plasma sample was assayed. The assay method was as follows. To 0.1 ml of plasma were added 0.5 ml of 0.5% aqueous solution of sodium hydrogen carbonate and 3 ml of chloroform and the mixture was shaken vigorously for about 5 minutes and centrifuged at 2500 rpm for about 5 minutes. The under layer (chloroform layer), 2 ml, was taken and the solvent chloform was evaporated off by blasting with nitrogen gas. The residue was redissolved in 0.2 ml of HPLC mobile phase and subjected to HPLC analysis (injection amount 50 μl) under the following conditions.
Column: YMC A-303 (5 μm), 4.6 mm in internal diameter and 25 cm in length (YMC).
Mobile phase: a mixture of water, acetonitrile and triethylamine (60:40:1) adjusted to pH 7.0 with phosphoric acid.
Detection: A UV spectrophotometer (exciting wavelength 285 nm)
Column temperature: Room temperature

[1] = Stability of lansoprazole composition for rectal administration: change in color on storage at 40° C. and 75% relative humidity (Experimental Example 2); assay type: physicochemical; conditions: relative humidity 75%, conclusion from Table 2
Protocol: (§1) After each of them was melted by warming at 60° C., 20 mg of lansoprazole and a specified amount [See Table 1] of sodium oleate were admixed with the base to prepare a composition. Each composition was stored at room temperature (25° C.) and the change in color was evaluated by comparing it with the composition prior to storage.
Using different fatty acid salts, the stability of lansoprazole in compositions for rectal administration was evaluated by the same procedure as Experiment Example 1. EPG-4000 or Witepsol W-35 was used as the base and sodium oleate, sodium palmitate or sodium caprate was used as the fatty acid salt, each in the amount indicated in Table 2. In this stability test, the test compositions were stored at a temperature of 40° C. and a relative humidity of 75%.

[2] = Stability of lansoprazole composition for rectal administration: change in color on storage at room temperature (25° C.) (Experiment Example 1); assay type: physicochemical; conditions: conclusion from Table 1
Protocol: Using PEG-4000 (Wako Pure Chemical Industries, Japan) or Witepsol W-35 (Dynamit Novel, Germany) as a base for rectal administration, the stability of lansoprazole in the composition was compared between the inclusion of sodium oleate and the exclusion of sodium oleate.
as §1

[3] = Rectal, Oleaginous base (Witepsol W-35) with sodium oleate
[4] = Rectal, Water-soluble base (PEG-6000) with sodium oleate

AUC at 8 h (in vivo; [3]): 1080 ng·h/mL
concentration at 0.08 h (in vivo; [3]): 90 ng/mL
concentration at 0.17 h (in vivo; [3]): 140 ng/mL
concentration at 0.25 h (in vivo; [3]): 210 ng/mL
concentration at 0.5 h (in vivo; [3]): 310 ng/mL
concentration at 1 h (in vivo; [3]): 360 ng/mL
concentration at 2 h (in vivo; [3]): 180 ng/mL
concentration at 4 h (in vivo; [3]): 90 ng/mL
concentration at 8 h (in vivo; [3]): 50 ng/mL
AUC at 8 h (in vivo; [4]): 890 ng·h/mL
concentration at 0.08 h (in vivo; [4]): 160 ng/mL
concentration at 0.17 h (in vivo; [4]): 240 ng/mL
concentration at 0.25 h (in vivo; [4]): 310 ng/mL
concentration at 0.5 h (in vivo; [4]): 420 ng/mL
concentration at 1 h (in vivo; [4]): 330 ng/mL
concentration at 2 h (in vivo; [4]): 110 ng/mL
concentration at 4 h (in vivo; [4]): 60 ng/mL
concentration at 8 h (in vivo; [4]): 30 ng/mL
AUC at 8 h (in vivo; iv): 3860 ng·h/mL
concentration at 0.08 h (in vivo; iv): 6960 ng/mL
concentration at 0.17 h (in vivo; iv): 5390 ng/mL
concentration at 0.25 h (in vivo; iv): 4830 ng/mL
concentration at 0.5 h (in vivo; iv): 3280 ng/mL
concentration at 1 h (in vivo; iv): 910 ng/mL
concentration at 2 h (in vivo; iv): 70 ng/mL
concentration at 4 h (in vivo; iv): 5 ng/mL
concentration at 8 h (in vivo; iv): 2 ng/mL
Structure (SMILES): Cc1c(OCC(F)(F)F)ccnc1C[S+]([O-])c1nc2ccccc2[nH]1 (stereo not shown) [lansoprazole, 2-[2-[3-methyl-4-(2,2,2-trifluoroethoxy)pyridyl]methylsulfinyl]benzimidazole]

Structure (SMILES): CCCCCCCCCC(=O)[O-].[Na+] [sodium caprate]
contribution to the stability of the active drug [1]: contributed a great deal to the stability of the active drug

Structure (SMILES): CCCCCCCC/C=C\CCCCCCCC(=O)[O-].[Na+] [sodium oleate]
contribution to the stability of the active drug [1]: contributed a great deal to the stability of the active drug
stabilization of lansoprazole [2]: stabilized lansoprazole

Structure (SMILES): CCCCCCCCCCCCCCCC(=O)[O-].[Na+] [sodium palmitate]
contribution to the stability of the active drug [1]: contributed a great deal to the stability of the active drug
